As usually defined, the IC50 is the concentration that gives 50% inhibition.

We go through three molecules from patent EP3925949A1, “AZIDO COMPOUNDS AND METHOD FOR MONITORING ACID CERAMIDASE ACTIVITY IN INTACT CELLS USING THEM” (Consejo Superior de Investigaciones Científicas (CSIC), priority 2020, dated 2021).

What all share (type): cell-based
Series [1] deals with T1, acid ceramidase (AC) (Homo sapiens, UniProt Q13510).
T1 sequence (Q13510 143-395 limits assumed): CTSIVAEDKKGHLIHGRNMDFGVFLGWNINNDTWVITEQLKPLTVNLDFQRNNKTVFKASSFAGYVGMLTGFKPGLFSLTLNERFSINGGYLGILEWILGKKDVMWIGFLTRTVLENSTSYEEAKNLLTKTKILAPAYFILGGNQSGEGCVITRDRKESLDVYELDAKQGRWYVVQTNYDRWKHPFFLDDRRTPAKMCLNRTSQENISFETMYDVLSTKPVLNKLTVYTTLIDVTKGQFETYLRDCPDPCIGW
T1 sequence (Q13510 22-142 limits assumed): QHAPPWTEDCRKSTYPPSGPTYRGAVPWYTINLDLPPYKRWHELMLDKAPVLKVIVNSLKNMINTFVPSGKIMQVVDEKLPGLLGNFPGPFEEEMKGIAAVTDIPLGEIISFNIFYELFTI
Put plainly: AC activity-dependence of labelling (fluorescence confocal microscopy). The conditions noted are these: A375/+Dox and A375/-Dox, with or without SOCLAC (Fig. 7A). On the set-up: expressed in transfected cells; host or cells: FD/AC (overexpressing AC). The method, then:
Cells were seeded at 1 × 10^5 cells/mL on glass-bottom plates and allowed to adhere for 24 h. For golgi staining, cells were incubated with 40 µL/well of CellLight Golgi-RFP BacMam 2.0 for 24 h. […] After this time, the medium was replaced with fresh medium containing CO-1 (1 µM final concentration), and cells were incubated for 10 min. Then cells were washed 3 times with DMEM for 5 min at 37 °C, 75 nM LysoTracker Red DND-99 or 75 nM Mitotracker in phenol red-free DMEM was added to stain lysosomes or mitochondria, and cells were kept in the incubator for microscope analysis. Staining was viewed with a Zeiss LSM 880 confocal microscope or Leica TCS SP8-Hyvolution. Image analysis was performed using Fiji software.^[7] To measure the Manders's and Pearson's coefficients a threshold including organelles and discarding the background was set. Co-localization coefficients were measured using the JaCoP plugin (S. Bolte et al. J. Microsc. 2006, 224, 213-232) on the different stacks of images (at least n=4) with each stack containing 3-10 cells.

For another series, the system named is CerS. In words: CerS activity-dependence of labelling with RBM5-177 (confocal microscopy and UPLC-HRMS). The following applies: A375/+Dox cells, FB1 100 µM, 24 h. On the procedure: Cells were seeded at 5 × 10^5 cells/mL into 6 well plates (1 mL/well) and were allowed to adhere for 24 h. Medium was replaced with fresh medium containing RBM5-177, RBM5-019 or RBM2-37 (5 µM final concentration). After 30 min, medium was removed; cells were washed with 400 µL PBS and harvested with 400 µL Trypsin-EDTA and 600 µL of medium. NC recombinant enzyme, lysates from A375-AC overexpressing cells, MEF5 or microsomes from HeLa T-Rex ACER1-TET-ON and HeLa T-Rex ACER2-TET-ON cells stably overexpress ACER1 orACER2 respectively were incubated with RBM5-177 or RBM5-019 (10 µM final concentration) for 3 h in the corresponding ceramidase activity buffer. Cell pellets were resuspended with 100 µL of H2O and mixed with 750 µL of methanol: chloroform, 2:1. Samples were heated at 48°C overnight and next day, 75 µL of 1 M KOH in methanol were added, followed by 2 h incubation at 37°C. Afterwards, the saponification was neutralised with 75 µL of 1 M acetic acid and solvent was removed using a Speed Vac Savant SPD131 DDA (Thermo Scientific). […]
Cells were seeded at 1 × 10^5 cells/mL on glass-bottom plates and allowed to adhere for 24 h. […] Co-localization coefficients were measured using the JaCoP plugin (S. Bolte et al. J. Microsc. 2006, 224, 213-232) on the different stacks of images (at least n=4) with each stack containing 3-10 cells.

The next series relates to A375 cells. Put plainly: Cell viability (MTT method). The conditions noted are these: A375/+Dox, 4 h, whole range of concentrations examined. On the procedure: A375 cells were seeded at 2.5 × 10^4 cells/mL in 96-well plates (0.1 ml/well) and grown for 24 h. Overexpression of AC was induced with doxycycline at 1 µg/mL for 24 h. Cell viability was examined in triplicate samples by MTT method after treatment with DM120 at different concentrations or with the corresponding percentage of vehicle for 4 h.
On the technique in general: Tetrazolium dyes change colour on reduction, which living cells bring about.

The target in series [2] is T1, acid ceramidase (AC). Put plainly: Fluorogenic AC activity in intact cells (substrate RBM14C12). The following applies: AC overexpressing A375 cells (A375/+Dox), 4 h, substrate RBM14C12 40 µM. On the set-up: expressed in transfected cells; host or cells: A375/+Dox (overexpressing AC). The method, then:
To determine AC activity in intact cells, A375 cells were seeded at 2.5 × 10^4 cells/mL in 96-well plates (0.1 ml/well) and grown for 24 h. Overexpression of AC was induced with doxycycline at 1 µg/mL for 24 h. Medium was replaced by DM120 at different concentrations and substrate RBM14C12 at a final concentration of 40 µM in DMEM. The plate was incubated for 4 h at 37°C in 5% CO2. The reaction was stopped with 25 µL of MeOH and then 100 µL of NalO4 (2.5 mg/mL in glycine-NaOH buffer, pH 10.6) was added. After incubation at 37°C for 1 h, 100 µL of 0.1 M glycine-NaOH buffer (pH 10.6) was added and fluorescence was measured spectrophotometrically at excitation and emission wavelengths of 355 and 460 nm, respectively. The same reaction mixture without cells was used as blank.

Series [3] deals with T1, acid ceramidase (AC). Put plainly: AC activity in intact cells by UPLC-HRMS quantification of RBM5-019 and reacylated products. More on the design: expressed in transfected cells; host or cells: A375/+Dox (overexpressing AC). The conditions noted are these: A375/+Dox, 4 h, decrease in RBM5-19 amounts by UPLC-HRMS. On the procedure: Cells were seeded at 5 × 10^5 cells/mL into 6 well plates (1 mL/well) and were allowed to adhere for 24 h. Medium was replaced with fresh medium containing RBM5-177, RBM5-019 or RBM2-37 (5 μM final concentration). After 30 min, medium was removed; cells were washed with 400 μL PBS and harvested with 400 μL Trypsin-EDTA and 600 μL of medium. NC recombinant enzyme, lysates from A375-AC overexpressing cells, MEF5 or microsomes from HeLa T-Rex ACER1-TET-ON and HeLa T-Rex ACER2-TET-ON cells stably overexpress ACER1 orACER2 respectively were incubated with RBM5-177 or RBM5-019 (10 μM final concentration) for 3 h in the corresponding ceramidase activity buffer. Cell pellets were resuspended with 100 μL of H2O and mixed with 750 μL of methanol: chloroform, 2:1. Samples were heated at 48°C overnight and next day, 75 μL of 1 M KOH in methanol were added, followed by 2 h incubation at 37°C. Afterwards, the saponification was neutralised with 75 μL of 1 M acetic acid and solvent was removed using a […] (Thermo Scientific). Sphingolipid extracts, fortified with internal standards (N-dodecanoylsphingosine, N-dodecanoylglucosylsphingosine, N-dodecanoylsphingosylphosphorylcoline and C17-sphinganine 0.2 nmol each) were solubilised in 150 μL of methanol. Samples were then centrifuged at 9,300 g for 3 min and 130 μL of the supernatant were injected to a Waters Aquity UPLC system connected to a Waters LCT Premier Orthogonal Accelerated Time of Flight Mass Spectrometer (Waters,Milford, MA, USA) operated in positive electrospray ionisation mode. Full scan spectra from 50 to 1500 Da were acquired and individual spectra were summed to produce data points each 0.2 s. Mass accuracy and reproducibility were maintained by using an independent reference spray by the LockSpray interference. The analytical column was a 100 mm x2.1 mm i.d., 1.7 μm C8 Acquity UPLC BEH (Waters). The two mobile phases were phase A: methanol/water/formic acid (74/25/1 v/v/v); phase B: methanol/formic acid (99/1 v/v), both also contained 5 mM ammonium formate. […]

Series [4] has as its target T1, acid ceramidase (AC). Put plainly: AC activity by flow cytometry with RBM5-177/CO-1 in intact cells. The following applies: A375/+Dox, 4 h, RBM5-177 as substrate, labelling with CO-1 (1 µM, 10 min). More on the design: expressed in transfected cells; host or cells: A375/+Dox and FD/AC (overexpressing AC); A375/-Dox and A549 (endogenous AC). The method, then:
Cells were seeded at 1 × 10^5 cells/mL into 6 well plates (1 mL/well) and were allowed to adhere for 24 h. Medium was replaced with fresh medium containing Soclac (5 µM final concentration) and incubated for 1 h. After this time, the medium was replaced with RBM5-177, RBM5-019 or RBM2-37 (5 µM final concentration) +/- Soclac and incubated for 20 min. In the experiments with DM120, the compound, Soclac and RBM5-177 were incubated together for 4 h. After probes incubation, the medium was replaced with fresh medium containing CO-1 (1 µM final concentration), and cells were incubated for 10 min. Then cells were washed 3 times with DMEM for 5 min at 37 °C, and finally washed with 400 µL PBS and harvested with 400 µL Trypsin-EDTA and 600 µL of medium. Pellets were resuspended with 200 µL of PBS and stained cells were analyzed by using a Guava EasyCyte™ flow cytometer (Merck Millipore, Billerica, MA) measuring green fluorescence (488/525 nm). Data analysis was performed using the Multicycle AV program (Phoenix Flow Systems, San Diego, CA).
On the technique in general: Flow cytometry measures light scatter and fluorescence of single cells or particles in a stream.

In the case of `C[C@H](N)[C@H](O)CCCCCCCCCCCCN=[N+]=[N-]` [RBM5-019, (2S,3R)-2-Amino-15-azidopentadecan-3-ol], on acid ceramidase (AC) [1], the “sensitivity of lysosome labelling to AC activity” value was “not sensitive to AC overexpression or blockade”.

In the case of `CCCC[C@@H](C)[C@@H](OC(=O)C[C@@H](CC(=O)O)C(=O)O)[C@H](C[C@@H](C)C[C@H](O)CCCC[C@@H](O)C[C@H](O)[C@H](C)N)OC(=O)C[C@@H](CC(=O)O)C(=O)O` [FB1, Fumonisin B1], in the series with CerS (UPLC-HRMS (Fig. 4B)), the “effect on transacylation (N-acylderivatives)” value was “transacylation was blocked”. Moreover, the “effect on extralysosomal staining” value in the series with CerS (confocal microscopy (Fig. 4A)) is “prevented”.

For the molecule `CCCCCCCCCCCCC/C=C/[C@H](CO)NC(=O)C(C)(C)C` [DM120], the toxicity entry with A375 cells is “without toxicity in the whole range of concentrations examined”. In addition, the IC50 on acid ceramidase (AC) [2] worked out at 9.4 µM; on acid ceramidase (AC) [3] it was 18 µM; against acid ceramidase (AC) [4], 27 µM.
